{"source": "patent US12673022B2", "about": "“Drug delivery system using solution” (Kyoto University, priority 2018, dated 2026)", "key": {"[1]": {"system": "EGFP reporter cells (C2C12 cells)", "test": "EGFP-SSA assay: uptake of Cas9 protein/gRNA complex into cells (EGFP positive rate)", "type": "cell-based, mouse", "conditions": "for EGFP positive rate (activity) with different (B) salts: Example 3, reaction solutions 3-1 to 3-6: 250 mM GABA, 50 mM HEPES, salt varied, FIG. 7; for Compound activity: EGFP positive rate (%): Example 1, compound 250.0 mM, reaction solution 1 (550 mM sodium chloride, 1 mM HEPES, Cas9 protein/gRNA), 30 minutes", "excerpt": "EGFP-SSA assay: an abbreviation of EGFP-single strand annealing assay. The reporter cassette shown in FIG. 1 is inserted in EGFP reporter cells. In the middle of the EGFP sequence of the cassette, MmDMD-Ex51 sequence is inserted. Since the presence of MmDMD-Ex51 sequence, by which EGFP ORF is divided, EGFP protein is not usually translated. However, when target sequence of MmDMD-Ex51 is cleaved by Cas9 protein/gRNA complex, the upstream region (EG part) and the downstream region (FP part) of EGFP ORF are annealed via a homology area into a single strand, with the result that a full-length EGFP ORF emerges to produce EGFP protein. Based on this principle, the ratio of the number of cells producing EGFP is checked by the EGFP-SSA assay. In this manner, the amount of Cas9 protein/gRNA complex delivered to cells can be predicted.\n(§1) Cas9 protein (0.4 μg), tracrRNA (34.18 ng), MmDmd Ex51 crRNA (29.48 ng), a 1 M HEPES buffer (0.05 μL) and a 5 M aqueous sodium chloride solution (5.5 μL) were mixed and diluted with UltraPure DNase/RNase-Free Distilled Water up to a liquid volume of 37.5 μL so as to obtain final concentrations: 8 ng/μL Cas9 protein, 0.68 ng/μL tracrRNA, 0.59 ng/μL MmDmd Ex51 crRNA, 1 mM HEPES, 550 mM sodium chloride, and 250 mM compound. To this solution, a 1000 mM compound solution (12.5 μL) was added and the solution mixture was incubated at normal temperature for 15 minutes.\nas §1, with “buffer (2.5” for “buffer (0.05”, “solution (4.85” for “solution (5.5”, “crRNA, 50” for “crRNA, 1”, “HEPES, 485” for “HEPES, 550”, “minutes. Note that, in the cases where the final concentrations of the compound are 0.69 mM, 25 mM, 100 mM, 125 mM, 160 mM, 200 mM and 500 mM, the compound stock solution was diluted with UltraPure DNase/RNase-Free Distilled Water up to concentrations of 2.76 mM, 100 mM, 400 mM, 500 mM, 640 mM, 800 mM and 2000 mM, respectively, and then, added. […]” for “minutes.”\nCas9 protein (2.0 μg), tracrRNA (170.9 ng), MmDmd Ex51 crRNA (147.4 ng), a 1 M HEPES buffer (12.5 μL), a 5 M aqueous sodium chloride solution (18.35 μL) and a 1 M aqueous GABA solution (62.5 μL) were mixed, diluted with UltraPure DNase/RNase-Free Distilled Water up to a liquid volume of 250 μL so as to obtain final concentrations: 8 ng/μL Cas9 protein, 0.68 ng/μL tracrRNA, 0.59 ng/μL MmDmd Ex51 crRNA, 50 mM HEPES, 250 mM GABA and 367 mM sodium chloride, and incubated at normal temperature for 15 minutes. Note that the addition amount of the 5 M aqueous sodium chloride solution was changed to 24.25 μL in the case of 485 mM sodium chloride and the addition amount was changed to 27.5 μL in the case of 550 mM sodium chloride, respectively."}, "[2]": {"system": "EGFP reporter cells (C2C12 cells)", "test": "Number of HOECHST cells detected (cell viability) in the EGFP-SSA assay", "conditions": "Example 1, formula (2)", "protocol": "To each of the solutions, a complex of gRNA and Cas9 protein was further dissolved. Mouse myoblasts (C2C12 cells) were contacted with each of the solutions in vitro, and target gene cleavage activity and cell viability were evaluated."}, "[3]": {"system": "EGFP reporter cells (C2C12 cells)", "test": "EGFP-SSA assay: uptake of Cas9 protein/gRNA complex into cells (EGFP positive rate)", "type": "cell-based, mouse", "conditions": "for Compound activity: EGFP positive rate (%): reaction solution 1 (550 mM sodium chloride, 1 mM HEPES, Cas9 protein/gRNA), 30 minutes; for EGFP positive rate: Example 4, compound 250 mM, FIG. 8"}, "[4]": {"conditions": "compound 250.0 mM vs 250 mM GABA positive control on the same plate"}, "[5]": {"conditions": "compound 125.0 mM vs 250 mM GABA positive control on the same plate"}, "[6]": {"conditions": "compound 200.0 mM vs 250 mM GABA positive control on the same plate"}, "[7]": {"conditions": "compound 500.0 mM vs 250 mM GABA positive control on the same plate"}}}
{"smiles": "[Cl-].[Na+]", "note": "[sodium chloride]", "values": [{"measurement": "EGFP positive rate (activity) with different (B) salts", "setting": "[1]", "value": "almost the same activity"}]}
{"smiles": "O=P(O)(O)O[C@H]1O[C@H](CO)[C@@H](O)[C@H](O)[C@H]1O", "note": "[α-D-Glucose-1-phosphate]", "values": [{"measurement": "Compound activity: EGFP positive rate (%)", "setting": "[1]", "value": 2.52, "unit": "%"}, {"measurement": "Relative ratio to GABA: Number of HOECHST cells", "setting": "[2]; [4]", "value": 1.29}]}
{"smiles": "Cn1cnc(C[C@H](N)C(=O)O)c1", "note": "[1-Methyl-L-histidine]", "values": [{"measurement": "Compound activity: EGFP positive rate (%)", "setting": "[1]", "value": 3.54, "unit": "%"}, {"measurement": "Relative ratio to GABA: Number of HOECHST cells", "setting": "[2]; [4]", "value": 0.68}]}
{"smiles": "Nc1cc[nH]c(=O)n1", "note": "[Cytosine]", "values": [{"measurement": "Compound activity: EGFP positive rate (%)", "setting": "[3]; Example 1, compound 25.0 mM", "value": 0.61, "unit": "%"}, {"measurement": "Relative ratio to GABA: Number of HOECHST cells", "setting": "[2]; compound 25.0 mM vs 250 mM GABA positive control on the same plate", "value": 0.77}]}
{"smiles": "OCCN1C[C@H](O)[C@@H](O)[C@H](O)[C@H]1CO", "note": "[Miglitol]", "values": [{"measurement": "Compound activity: EGFP positive rate (%)", "setting": "[3]; Example 1, compound 125.0 mM", "value": 1.55, "unit": "%"}, {"measurement": "Relative ratio to GABA: Number of HOECHST cells", "setting": "[2]; [5]", "value": 0.83}]}
{"smiles": "OC[C@H]1O[C@@H](O[C@H]2[C@H](O)[C@@H](O)[C@H](O)O[C@@H]2CO)[C@H](O)[C@@H](O)[C@@H]1O", "note": "[D(+)-cellobiose]", "values": [{"measurement": "Compound activity: EGFP positive rate (%)", "setting": "[3]; Example 1, compound 200.0 mM", "value": 1.18, "unit": "%"}, {"measurement": "Relative ratio to GABA: Number of HOECHST cells", "setting": "[2]; [6]", "value": 1.00}]}
{"smiles": "NCCC(=O)N[C@@H](Cc1cnc[nH]1)C(=O)O", "note": "[L-Carnosine]", "values": [{"measurement": "Compound activity: EGFP positive rate (%)", "setting": "[3]; Example 1, compound 125.0 mM", "value": 1.76, "unit": "%"}, {"measurement": "Relative ratio to GABA: Number of HOECHST cells", "setting": "[2]; [5]", "value": 0.98}]}
{"smiles": "CC(O)CCO", "note": "(stereo not shown) [1,3-Butylene glycol]", "values": [{"measurement": "Compound activity: EGFP positive rate (%)", "setting": "[3]; Example 1, compound 0.69 mM", "value": 3.62, "unit": "%"}, {"measurement": "Relative ratio to GABA: Number of HOECHST cells", "setting": "[2]; compound 0.69 mM vs 250 mM GABA positive control on the same plate", "value": 1.03}]}
{"smiles": "CNC(=O)NC", "note": "[1,3-Dimethylurea]", "values": [{"measurement": "Compound activity: EGFP positive rate (%)", "setting": "[3]; Example 1, compound 500.0 mM", "value": 2.64, "unit": "%"}, {"measurement": "Relative ratio to GABA: Number of HOECHST cells", "setting": "[2]; [7]", "value": 0.68}]}
{"smiles": "CN1CC(=O)NC1=N", "note": "[Creatinine]", "values": [{"measurement": "Relative ratio to GABA: EGFP positive rate (%)", "setting": "[3]; Example 1, compound 200.0 mM vs 250 mM GABA positive control on the same plate, formula (1)", "value": 2.50}, {"measurement": "Compound activity: EGFP positive rate (%)", "setting": "[3]; Example 1, compound 200.0 mM", "value": 2.27, "unit": "%"}, {"measurement": "Relative ratio to GABA: Number of HOECHST cells", "setting": "[2]; [6]", "value": 0.84}]}
{"smiles": "O=C(O)CCC(O)C(=O)O", "note": "(stereo not shown) [2-Hydroxyglutaric acid]", "values": [{"measurement": "Compound activity: EGFP positive rate (%)", "setting": "[1]", "value": 1.89, "unit": "%"}, {"measurement": "Relative ratio to GABA: Number of HOECHST cells", "setting": "[2]; [4]", "value": 0.83}]}
{"smiles": "CC(C)(CO)[C@@H](O)C(=O)NCCC(=O)O", "note": "[Calcium pantothenate]", "values": [{"measurement": "Compound activity: EGFP positive rate (%)", "setting": "[3]; Example 1, compound 160.0 mM", "value": 0.25, "unit": "%"}, {"measurement": "Relative ratio to GABA: Number of HOECHST cells", "setting": "[2]; compound 160.0 mM vs 250 mM GABA positive control on the same plate", "value": 1.50}]}
{"smiles": "NCCCC(=O)O", "note": "[GABA, γ-aminobutyric acid, reference compound]", "values": [{"measurement": "EGFP positive rate", "setting": "[1]; Example 4, sodium chloride 550 mM, compound 250 mM, FIG. 8", "value": 1.4, "unit": "%"}, {"measurement": "Compound activity: EGFP positive rate (%)", "setting": "[3]; Example 1, compound 200.0 mM", "value": 1.39, "unit": "%"}, {"measurement": "EGFP positive rate", "setting": "[3]; sodium chloride 150 mM", "value": "less than 1%"}, {"measurement": "EGFP positive rate", "setting": "[3]; sodium chloride 350 mM", "value": "less than 1%"}, {"measurement": "Relative ratio to GABA: Number of HOECHST cells", "setting": "[2]; [6]", "value": 1.00}]}
{"smiles": "O=C(O)[C@H](O)[C@@H](O)[C@H](O)[C@H](O)COP(=O)(O)O", "note": "[6-Phospho-D-gluconic acid]", "values": [{"measurement": "Compound activity: EGFP positive rate (%)", "setting": "[1]", "value": 2.61, "unit": "%"}, {"measurement": "Relative ratio to GABA: Number of HOECHST cells", "setting": "[2]; [4]", "value": 1.31}]}
{"smiles": "CC(C)C(=O)C(=O)O", "note": "[Sodium 3-methyl-2-oxobutate]", "values": [{"measurement": "Compound activity: EGFP positive rate (%)", "setting": "[3]; Example 1, compound 200.0 mM", "value": 1.71, "unit": "%"}, {"measurement": "Relative ratio to GABA: Number of HOECHST cells", "setting": "[2]; [6]", "value": 0.53}]}
{"smiles": "O=c1ccn([C@H]2C[C@H](O)[C@@H](CO)O2)c(=O)[nH]1", "note": "[2′-Deoxyuridine]", "values": [{"measurement": "Compound activity: EGFP positive rate (%)", "setting": "[3]; Example 1, compound 100.0 mM", "value": 1.10, "unit": "%"}, {"measurement": "Relative ratio to GABA: Number of HOECHST cells", "setting": "[2]; compound 100.0 mM vs 250 mM GABA positive control on the same plate", "value": 0.88}]}
{"smiles": "O=C(O)[C@@H]1CC(O)CN1", "note": "(stereo partly shown) [4-Hydroxyproline]", "values": [{"measurement": "Compound activity: EGFP positive rate (%)", "setting": "[3]; Example 1, compound 500.0 mM", "value": 35.82, "unit": "%"}, {"measurement": "Relative ratio to GABA: Number of HOECHST cells", "setting": "[2]; [7]", "value": 0.62}]}
{"smiles": "Nc1ccn([C@@H]2O[C@H](CO)[C@@H](O)[C@H]2O)c(=O)n1", "note": "[Cytidine]", "values": [{"measurement": "Compound activity: EGFP positive rate (%)", "setting": "[3]; Example 1, compound 125.0 mM", "value": 2.24, "unit": "%"}, {"measurement": "Relative ratio to GABA: Number of HOECHST cells", "setting": "[2]; [5]", "value": 1.58}]}
{"smiles": "[Cl-].[Cl-].[Mg+2]", "note": "[magnesium chloride]", "values": [{"measurement": "EGFP positive rate (activity) with different (B) salts", "setting": "[1]", "value": "almost the same activity"}]}
